According to patent US4880825A, “Mitomycin derivatives” (Kyowa Hakko Kogyo Kabushiki Kaisha, priority 1987, dated 1989):
Converted amounts (≈) assume the structure as drawn.

Experiments:
[1] = tested on: Klebsiella pneumoniae ATCC 10031; experiment: Anti-bacterial activity, minimum inhibitory concentration by agar dilution method at pH 7.0 (KP); type: cell-based; conditions: ATCC10031
Excerpt: (§1) In this table, the microorganisms are abbreviated as follows:
KP: Klebsiella pneumoniae ATCC 10031.

[2] = Acute toxicity (LD50, Behrens-Koerber method); conditions: mouse, in vivo, ip; ddy mice, abdominally administered once, 14 days observation
Experimental: From the death ratio of each test group of animals, acute toxicity (LD50) was calculated by the "Behrens-Koerber" method.

[3] = tested on: Proteus vulgaris ATCC 6897; experiment: Anti-bacterial activity, minimum inhibitory concentration by agar dilution method at pH 7.0 (PV); type: cell-based; conditions: ATCC6897
Excerpt: as §1
PV: Proteus vulgaris ATCC 6897

Leukemia P-388 = experiment: Effects upon Leukemia P-388 (survival of CDF1 mice implanted with P-388 cells); type: in vivo, mouse (CDF1); conditions: abdominally once; for ILS(%) (Increased Life Span): 24 h after implantation, CDF1 mice, 33 days, ratio to untreated control survival; for ILS* (ratio of ILS % of test compound to ILS % of mitomycin C): relative to mitomycin C as control under the same conditions
Experimental: P-388 ascites tumour was abdominally implanted into a mouse (DBA/2). 7 days after this, ascitic fluid was collected from the tumour-carrying mouse. The number of P-388 cells was counted to prepare a cell suspension containing 5×10^6 cells/ml using a sterilized physiological saline solution. 0.2 ml of the cell suspension containing 1×10^6cells was abdominally implanted into each mouse of CDF1 strain (body weight 20-25 g). […] The effect of the test compound was evaluated with reference to the ILS % (Increased Life Span) (the ratio of the average survival days of the test animals to the average survival days of the control group of untreated animals). The following Table 5 indicates ILS* (the ratio of ILS % obtained using each of the test compounds to the corresponding ILS % obtained using mitomycin C as control under the same conditions).

[4] = tested on: Staphylococcus aureus ATCC 6538P; experiment: Anti-bacterial activity, minimum inhibitory concentration by agar dilution method at pH 7.0 (SA); type: cell-based; conditions: ATCC6538P
Excerpt: as §1
SA: Staphylococcus aureus ATCC 6538P

[5] = tested on: Streptococcus faecalis ATCC 10541; experiment: Anti-bacterial activity, minimum inhibitory concentration by agar dilution method at pH 7.0 (SF); type: cell-based; conditions: Enterococcus faecalis, ATCC10541
Excerpt: as §1
SF: Streptococcus faecalis ATCC 10541

Compound | MIC [1] [µg/mL] | LD50 at 336 h [2] [mg/kg] | MIC [3] [µg/mL] | ILS(%) (Increased Life Span) (Leukemia P-388; dose 0.39 mg/kg) | ILS* (ratio of ILS % of test compound to ILS % of mitomycin C) (Leukemia P-388; dose 0.39 mg/kg) | MIC [4] [µg/mL] | MIC [5] [µg/mL] | ILS(%) (Increased Life Span) (Leukemia P-388; dose 5 mg/kg) | ILS* (ratio of ILS % of test compound to ILS % of mitomycin C) (Leukemia P-388; dose 5 mg/kg) | ILS(%) (Increased Life Span) (Leukemia P-388; dose 2.5 mg/kg) | ILS* (ratio of ILS % of test compound to ILS % of mitomycin C) (Leukemia P-388; dose 2.5 mg/kg) | ILS(%) (Increased Life Span) (Leukemia P-388; dose 1.56 mg/kg) | ILS* (ratio of ILS % of test compound to ILS % of mitomycin C) (Leukemia P-388; dose 1.56 mg/kg) | ILS(%) (Increased Life Span) (Leukemia P-388; dose 12.5 mg/kg) | ILS* (ratio of ILS % of test compound to ILS % of mitomycin C) (Leukemia P-388; dose 12.5 mg/kg)
CO[C@@]12[C@H](COC(N)=O)C3=C(C(=O)C(C)C4(OCCO4)C3=O)N1C[C@@H]1N[C@@H]12 (stereo partly shown) [Compound 1, 7-demethoxy-6,7-dihydro-7-ethylenedioxymitomycin A] | 0.0049 (≈ 0.0129 µM) | 0.7 | 0.0098 (≈ 0.0258 µM) | 169 | 1.00 | 0.039 (≈ 0.103 µM) | 0.078 (≈ 0.206 µM) | – | – | – | – | – | – | – | –
CC1C(=O)C2=C(C(=O)C13OCCO3)[C@H](COC(N)=O)[C@@]1(O)[C@@H]3[C@H](CN21)N3C (stereo partly shown) [Compound 2, 7-demethoxy-6,7-dihydro-7-ethylenedioxymitomycin B] | 1.3 (≈ 3.43 µM) | 7.5 | 0.63 (≈ 1.66 µM) | – | – | 2.5 (≈ 6.59 µM) | 2.6 (≈ 6.85 µM) | 173 | 1.06 | – | – | – | – | – | –
CO[C@@]12[C@H](COC(N)=O)C3=C(C(=O)C(C)C4(OCCO4)C3=O)N1C[C@H]1[C@@H]2N1C (stereo partly shown) [Compound 3, 7-demethoxy-6,7-dihydro-7-ethylenedioxymitomycin F] | 0.31 (≈ 0.788 µM) | 4.5 | 0.63 (≈ 1.6 µM) | – | – | 0.31 (≈ 0.788 µM) | 0.31 (≈ 0.788 µM) | – | – | 153 | 0.77 | – | – | – | –
CO[C@]12[C@@H]3[C@H](CN1C1=C(C(=O)C4(OCCO4)C(C)C1=O)[C@@H]2COC(N)=O)N3C (stereo partly shown) [Compound 4, 7-demethoxy-6,7-dihydro-7-ethylenedioxymitomycin J] | 0.31 (≈ 0.788 µM) | 6 | 0.63 (≈ 1.6 µM) | – | – | 0.63 (≈ 1.6 µM) | 0.31 (≈ 0.788 µM) | 180 | 1.16 | – | – | – | – | – | –
CO[C@@]12[C@H](COC(N)=O)C3=C(C(=O)C(C)(Cl)C4(OCCO4)C3=O)N1C[C@@H]1N[C@@H]12 (stereo partly shown) [Compound 8, 6-chloro-7-demethoxy-6,7-dihydro-7-ethylenedioxymitomycin A] | 0.039 (≈ 0.0942 µM) | 3.75 | 1.3 (≈ 3.14 µM) | – | – | 0.039 (≈ 0.0942 µM) | 1.3 (≈ 3.14 µM) | – | – | – | – | > 164 | > 0.93 | – | –
CN1[C@H]2[C@@H]1CN1C3=C(C(=O)C4(OCCO4)C(C)(Cl)C3=O)[C@H](COC(N)=O)[C@@]21O (stereo partly shown) [Compound 9, 6-chloro-7-demethoxy-6,7-dihydro-7-ethylenedioxymitomycin B] | 5 (≈ 12.1 µM) | 15 | > 40 | – | – | > 40 | 10 (≈ 24.2 µM) | – | – | – | – | – | – | 159 | 1.13
CO[C@@]12[C@H](COC(N)=O)C3=C(C(=O)C(C)(Br)C4(OCCO4)C3=O)N1C[C@H]1[C@@H]2N1C (stereo partly shown) [Compound 10, 6-bromo-7-demethoxy-6,7-dihydro-7-ethylenedioxymitomycin F] | 5 (≈ 10.6 µM) | – | 5 (≈ 10.6 µM) | – | – | 0.63 (≈ 1.33 µM) | 2.5 (≈ 5.29 µM) | – | – | – | – | – | – | – | –
